Source: US20260250325A1, “Antiviral Polypeptide Membrane Fusion Inhibitor, and Preparation Method and Application Thereof” (priority 2025, published 2026)
Where a SMILES comes first, the peptide text is derived from it. The star is where a group is joined. Succinyl(4-O-cholesteryl) = CC(C)CCC[C@@H](C)[C@H]1CC[C@H]2[C@@H]3CC=C4C[C@@H](OC(=O)CCC(=O)*)CC[C@]4(C)[C@H]3CC[C@]12C

Assays:
[1] = test system: hMPV B1; format: cell-based; conditions: Vero cells, plaque reduction
Experimental: (§1) African green monkey kidney cells (Vero) were sourced from the ATCC, with catalog number CCL-81. The cells were cultured in a DMEM culture solution in which 10% fetal bovine serum, 1% non-essential amino acids, 1% sodium pyruvate, 1% L-glutamine, 100 U/ml penicillin, and 100 μg/ml streptomycin were added.
(§2) A hMPV plaque experiment culture medium consisted of an Opti-MEM culture solution added with 1% non-essential amino acids, 100 U/mL penicillin, and 100 μg/mL streptomycin.
(§3) hMPV virus strains A2 and B1 were constructed by WuXi App Tec.
(§4) This study used a plaque reduction experiment to detect the in-vitro activity of a test sample against the hMPV virus strains A2 and B1.
(§5) The test sample and an experimental system were tested at 8 concentrations in duplicated wells. The Vero cells were digested with trypsin and then diluted to a concentration of 400,000 cells per milliliter by using a cell culture solution containing 2% serum. The diluted cells were added to a 96-well cell test board, with 100 μL per well, corresponding to 40000 cells per well. The cells were cultured overnight in a 37° C. incubator with 5% CO2.
(§6) On the second day, the test sample was diluted in an experimental culture medium at a fold ratio. The sample diluted at a fold ratio and an equal volume of virus (approximately 200 PFU per well) were well mixed and incubated at 33° C. in 5% CO2 for 1 h. Then, the culture solution in the 96-well cell test board was discarded, the sample virus mixed solution (100 μL) was added to the 96-well cell culture plate, and incubated at 37° C. in 5% CO2 for 2 hours. After 2 h, the sample virus mixed solution was discarded, 200 μL of an experiment culture medium containing the test sample with a corresponding concentration was added, and the culture solution contained 0.8% CMC and 5 μg/ml trypsin. A final concentration of DMSO in the culture solution was 0.5%. A system control antibody was directly added to the experiment culture solution containing 0.8% CMC and 5 μg/ml trypsin. A cell control (cells, without compound treatment or viral infection) and a viral control (cell infection virus, without compound treatment) were set. The cells were cultured for 1 day in the 33° C. incubator with 5% CO2.
(§7) The cells were fixed with 4% paraformaldehyde, and then permeabilization was performed with 0.5% Triton X-100. After the plate was washed with DPBS, a hMPV specific antibody (1:2000 dilution) was added and incubated at 37° C. for 1.5 h. Then, a secondary antibody (1:1000 dilution) was added and incubated at 37° C. for 1 hour. The secondary antibody was discarded, a TrueBlue solution was added, dyeing was performed for approximately 10 minutes; and the plate was washed with running water and then air-dried, and the number of spots in each well was counted by using a microplate imaging counter.
(§8) Raw data was used for analyzing the antiviral activity of the test samples. A calculation formula was shown as follows.
(§9) % inhibition rate=100−(sample value-cell control average value)/(virus control average value-cell control average value)×100
(§10) Non-linear fitting analysis was performed on the inhibition rate of the sample by using GraphPad Prism (version 10), so as to calculate an EC50 value for the sample. A fitting formula was log (inhibitor) vs. response-Variable slope (four parameters).

[2] = test system: hMPV A2; format: cell-based; conditions: Vero cells, plaque reduction
Experimental: as §1, §2, §3, §4, §5, §6, §7, §8, §9, §10

[3] = target: T1, hPIV-N51 (139-189) (Human parainfluenza 3 virus, UniProt P06828); test: SPR affinity to hPIV-N51 coupled on CM5 chip; format: binding
T1 construct: hPIV-N51 (139-189)
T1 sequence (P06828 139-189): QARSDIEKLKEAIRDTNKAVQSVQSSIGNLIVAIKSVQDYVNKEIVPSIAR
Experimental: (§11) hMPV and hPIV were two viruses having a typical Class I fusion protein-F protein. An F protein precursor F0 was cracked into F1 and F2 subunits. […] When the compound flowed through a chip surface, changes in an SPR signal were monitored in real time, binding and dissociation processes were recorded, and a binding rate constant (ka) and a dissociation rate constant (kd) were further obtained through kinetic analysis, thereby calculating an equilibrium dissociation constant (KD=kd/ka).
(§12) A CM5 chip with a catalog number 29149603, an amino coupling reagent kit with a catalog number BR100050, HBS-EP+Buffer (10×), sodium acetate (pH 4.0), and a 10 mM glycine-HCl buffer (pH 2.0) were all purchased from GE Health.
(§13) CM5 chip coupling: Channels 2 and 4 of the CM5 chip were activated for 7 min by using a freshly-prepared mixture of 50 mM Hydroxy succinimide (NHS) and 200 mM 1-(3-Dimethylaminopropyl)-3-ethylcarbodiimide (EDC) according to 1:1; and then, hMPV-N46 or hPIV-N51 was diluted and dissolved with sodium acetate with 4.0 pH to a concentration of 30 μM, with a flow rate of 10 μl/min and time of 600 s. An experimental buffer was HBS-EP+buffer (1×). Finally, the chip was blocked with 1 M ethanolamine. The instrument was set to a temperature of 25° C.
(§14) Affinity detection: the buffer used in the experiment was HBS-EP+buffer (1×), and a multi-cycle dynamic mode was used. Channels 1 and 3 of the chip served as blank reference channels; polypeptides to be detected sequentially flowed through Channels 2 and 4 at concentrations of 0 μM, 0.04 µM, 0.12 µM, 0.37 μM, 1.11 µM, 3.33 µM, 10 µM, and 30 μM; the flow rate was 30 μl/min, binding was performed for 180 s, and dissociation was performed for 120 s. Finally, the chip was regenerated by injecting 10 mM glycine (pH 2.0). The instrument was set to a temperature of 25° C.

[4] = target: T2, hMPV-N46 (127-172) (Human metapneumovirus, UniProt Q6WB98); test: SPR affinity to hMPV-N46 coupled on CM5 chip; format: binding
T2 construct: hMPV-N46 (127-172)
T2 sequence (Q6WB98 127-172): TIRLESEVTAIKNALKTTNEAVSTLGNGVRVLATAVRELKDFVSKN
Experimental: as §11, §12, §13, §14

| SMILES | EC50 [1] [nM] | EC50 [2] [nM] | Kd [3] [nM] | Kd [4] [nM] |
| --- | --- | --- | --- | --- |
| CC[C@H](C)[C@H](NC(=O)[C@H](CCCCN)NC(=O)[C@H](CCCCN)NC(=O)[C@H](CC(C)C)NC(=O)[C@H](CO)NC(=O)[C@H](CCC(=O)O)NC(=O)[C@H](CCC(=O)O)NC(=O)[C@@H](NC(=O)[C@H](CCCCN)NC(=O)[C@H](CCCCN)NC(=O)[C@H](CC(N)=O)NC(=O)[C@@H](NC(=O)[C@H](CCC(=O)O)NC(=O)[C@H](CCC(=O)O)NC(=O)[C@@H](NC(=O)[C@H](CCCCN)NC(=O)[C@H](CCCCN)NC(=O)[C@H](CC(=O)O)NC(=O)[C@H](Cc1ccccc1)NC(=O)[C@H](CCC(=O)O)NC(=O)[C@H](CC(=O)O)NC(=O)[C@H](Cc1c[nH]c2ccccc12)NC(C)=O)[C@@H](C)CC)C(C)C)[C@@H](C)CC)C(=O)N[C@@H](CCC(=O)O)C(=O)N[C@@H](CCC(=O)O)C(=O)N[C@@H](CO)C(=O)N[C@@H](CC(=O)O)C(=O)N[C@@H](CCCCN)C(=O)N[C@@H](CCCCN)C(=O)N[C@@H](CC(C)C)C(=O)N[C@@H](CCC(=O)O)C(=O)N[C@@H](CCC(=O)O)C(=O)N[C@H](C(=O)N[C@@H](CC(N)=O)C(=O)N[C@@H](C)C(=O)N[C@@H](CCC(=O)O)C(=O)N[C@@H](C)C(=O)N[C@@H](C)C(=O)N[C@@H](C)C(=O)N[C@@H](CCCCN)C(=O)N[C@@H](CCCCNC(=O)CCC(=O)O[C@H]1CC[C@@]2(C)C(=CC[C@H]3[C@@H]4CC[C@H]([C@H](C)CCCC(C)C)[C@@]4(C)CC[C@@H]32)C1)C(N)=O)C(C)C [Compound 40] (Ac-WDEFDKKIEEVNKKIEESLKKIEESDKKLEEVNAEAAAKK(Succinyl(4-O-cholesteryl))-NH2) | 7.47 | 13.8 | 2270 | 2470 |
| CC[C@H](C)[C@H](NC(=O)[C@H](CCCCN)NC(=O)[C@H](CCC(=O)O)NC(=O)[C@H](CC(C)C)NC(=O)[C@H](CO)NC(=O)[C@H](CCC(N)=O)NC(=O)[C@H](CC(N)=O)NC(=O)[C@@H](NC(=O)[C@H](CCCCN)NC(=O)[C@H](CCC(=O)O)NC(=O)[C@H](CC(N)=O)NC(=O)[C@@H](NC(=O)[C@H](CCC(N)=O)NC(=O)[C@H](CO)NC(=O)[C@H](C)NC(=O)[C@H](CC(=O)O)NC(=O)[C@H](Cc1ccccc1)NC(=O)[C@@H](NC(=O)[C@H](CC(C)C)NC(=O)[C@H](CCC(=O)O)NC(=O)[C@H](CC(=O)O)NC(=O)[C@H](Cc1ccc(O)cc1)NC(C)=O)C(C)C)C(C)C)[C@@H](C)CC)C(=O)N[C@@H](CCCNC(=N)N)C(=O)N[C@@H](CCCCN)C(=O)N[C@@H](CO)C(=O)N[C@@H](CC(=O)O)C(=O)N[C@@H](CCC(=O)O)C(=O)N[C@@H](CC(C)C)C(=O)N[C@@H](CC(C)C)C(=O)N[C@@H](Cc1c[nH]cn1)C(=O)N[C@@H](CC(N)=O)C(=O)N[C@H](C(=O)N[C@@H](CCC(=O)O)C(=O)N[C@@H](C)C(=O)N[C@@H](C)C(=O)N[C@@H](C)C(=O)N[C@@H](CCCCN)C(=O)N[C@@H](CCCCNC(=O)CCC(=O)O[C@H]1CC[C@@]2(C)C(=CC[C@H]3[C@@H]4CC[C@H]([C@H](C)CCCC(C)C)[C@@]4(C)CC[C@@H]32)C1)C(N)=O)C(C)C [Compound 30] (Ac-YDELVFDASQVNEKINQSLEKIRKSDELLHNVEAAAKK(Succinyl(4-O-cholesteryl))-NH2) | 51.3 | 94.8 | 1020 | 187 |
| CC[C@H](C)[C@H](NC(=O)[C@H](CO)NC(=O)[C@H](C)NC(=O)[C@H](CC(=O)O)NC(=O)[C@H](Cc1ccccc1)NC(=O)[C@H](CCC(=O)O)NC(=O)[C@H](CC(=O)O)NC(=O)[C@H](Cc1c[nH]c2ccccc12)NC(C)=O)C(=O)N[C@@H](CO)C(=O)N[C@@H](CCC(N)=O)C(=O)N[C@H](C(=O)N[C@@H](CC(N)=O)C(=O)N[C@@H](CCC(=O)O)C(=O)N[C@@H](CCCCN)C(=O)N[C@H](C(=O)N[C@@H](CC(N)=O)C(=O)N[C@@H](CCC(N)=O)C(=O)N[C@@H](CO)C(=O)N[C@@H](CC(C)C)C(=O)N[C@@H](CCC(=O)O)C(=O)N[C@@H](CCC(=O)O)C(=O)N[C@H](C(=O)N[C@@H](CCCNC(=N)N)C(=O)N[C@@H](CCCCN)C(=O)N[C@@H](CO)C(=O)N[C@@H](CC(=O)O)C(=O)N[C@@H](CCC(=O)O)C(=O)N[C@@H](CC(C)C)C(=O)N[C@@H](CC(C)C)C(=O)N[C@@H](Cc1c[nH]cn1)C(=O)N[C@@H](CC(N)=O)C(=O)N[C@@H](CCC(=O)O)C(=O)N[C@@H](C)C(=O)N[C@@H](C)C(=O)N[C@@H](C)C(=O)N[C@@H](CCCCN)C(=O)N[C@@H](CCCCNC(=O)CCC(=O)O[C@H]1CC[C@@]2(C)C(=CC[C@H]3[C@@H]4CC[C@H]([C@H](C)CCCC(C)C)[C@@]4(C)CC[C@@H]32)C1)C(N)=O)[C@@H](C)CC)[C@@H](C)CC)C(C)C [Compound 45] (Ac-WDEFDASISQVNEKINQSLEEIRKSDELLHNEAAAKK(Succinyl(4-O-cholesteryl))-NH2) | 13.1 | 200 | 179000 | 70600 |
| CC[C@H](C)[C@H](NC(=O)[C@H](CCCCN)NC(=O)[C@H](CCCCN)NC(=O)[C@H](CC(C)C)NC(=O)[C@H](CO)NC(=O)[C@H](CCC(N)=O)NC(=O)[C@H](CC(N)=O)NC(=O)[C@@H](NC(=O)[C@H](CCCCN)NC(=O)[C@H](CCCCN)NC(=O)[C@H](CC(=O)O)NC(=O)[C@H](Cc1ccccc1)NC(=O)[C@H](CCC(=O)O)NC(=O)[C@@H](NC(=O)[C@H](CCCCN)NC(=O)[C@H](CCCCN)NC(=O)[C@H](CC(N)=O)NC(=O)[C@@H](NC(=O)[C@H](CC(C)C)NC(=O)[C@H](CCC(=O)O)NC(=O)[C@H](CC(=O)O)NC(=O)[C@H](CO)NC(C)=O)C(C)C)[C@@H](C)CC)[C@@H](C)CC)C(=O)N[C@@H](CCC(=O)O)C(=O)N[C@@H](CCC(=O)O)C(=O)N[C@@H](CO)C(=O)N[C@@H](CC(=O)O)C(=O)N[C@@H](CCCCN)C(=O)N[C@@H](CCCCN)C(=O)N[C@@H](CCCCN)C(=O)N[C@@H](CC(C)C)C(=O)N[C@@H](CCC(=O)O)C(=O)N[C@@H](C)C(=O)N[C@@H](C)C(=O)N[C@@H](C)C(=O)N[C@@H](CCCCN)C(=O)N[C@@H](CCCCN)C(N)=O [Compound 51] (Ac-SDELVNKKIEFDKKINQSLKKIEESDKKKLEAAAKK-NH2) | 3.82 | 18.8 | 51.4 | 14.4 |
